Legend:
Test in all cases: Test C preemergence
Type in all cases: in vivo
[1] = system: ryegrass, Italian (Italian ryegrass, Lolium multiflorum); details: for Plant response rating, Ryegrass, Italian: scale 0 to 100, 0 no effect, 100 complete control
How it was run: (§1)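 Preemergence application to seeds in loam/sand soil, or foliar (postemergence) application to plants 2–18 cm tall in peat moss/vermiculite medium; surfactant-containing non-phytotoxic solvent vehicle; greenhouse. Visual injury vs controls at 13–15 d; 0 = no effect, 100 = complete control.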

[2] = system: barnyardgrass (Echinochloa crus-galli); details: for Plant response rating, Barnyardgrass: scale 0 to 100, 0 no effect, 100 complete control
How it was run: as §1

[3] = system: Galium (catchweed bedstraw, Galium aparine); details: for Plant response rating, Galium: scale 0 to 100, 0 no effect, 100 complete control
How it was run: as §1

[4] = system: blackgrass (Alopecurus myosuroides); details: for Plant response rating, Blackgrass: scale 0 to 100, 0 no effect, 100 complete control
How it was run: as §1

[5] = system: nutsedge, yellow (yellow nutsedge, Cyperus esculentus); details: for Plant response rating, Nutsedge, Yellow: scale 0 to 100, 0 no effect, 100 complete control
How it was run: as §1

[6] = system: velvetleaf (Abutilon theophrasti); details: for Plant response rating, Velvetleaf: scale 0 to 100, 0 no effect, 100 complete control
How it was run: as §1

[7] = system: ragweed (common ragweed, Ambrosia elatior); details: for Plant response rating, Ragweed: scale 0 to 100, 0 no effect, 100 complete control
How it was run: as §1

[8] = system: morningglory (Ipomoea coccinea); details: for Plant response rating, Morningglory: scale 0 to 100, 0 no effect, 100 complete control
How it was run: as §1

[9] = system: pigweed (Amaranthus retroflexus); details: for Plant response rating, Pigweed: scale 0 to 100, 0 no effect, 100 complete control
How it was run: as §1

soybean (Glycine max) = details: for Plant response rating, Soybean: scale 0 to 100, 0 no effect, 100 complete control
How it was run: as §1

corn (Zea mays) = details: for Plant response rating, Corn: scale 0 to 100, 0 no effect, 100 complete control
How it was run: as §1

[10] = system: crabgrass, large (large crabgrass, Digitaria sanguinalis); details: for Plant response rating, Crabgrass, Large: scale 0 to 100, 0 no effect, 100 complete control
How it was run: as §1

[11] = system: johnsongrass (Sorghum halepense); details: for Plant response rating, Johnsongrass: scale 0 to 100, 0 no effect, 100 complete control
How it was run: as §1

[12] = system: waterhemp (common waterhemp, Amaranthus rudis); details: for Plant response rating, Waterhemp: scale 0 to 100, 0 no effect, 100 complete control
How it was run: as §1

[13] = system: foxtail, giant (giant foxtail, Setaria faberii); details: for Plant response rating, Foxtail, Giant: scale 0 to 100, 0 no effect, 100 complete control
How it was run: as §1

[14] = system: oilseed rape (Brassica napus); details: for Plant response rating, Oilseed Rape: scale 0 to 100, 0 no effect, 100 complete control
How it was run: as §1

[15] = system: wheat (winter wheat, Triticum aestivum); details: for Plant response rating, Wheat: scale 0 to 100, 0 no effect, 100 complete control
How it was run: as §1

[16] = 31 g ai/ha, 0 is no effect, 100 is complete control

For O=C1NCC(c2cccc(OC(F)(F)C(F)F)c2)C1C(=O)Nc1ccc(F)c(F)c1F (racemic) [Compound 698], the “Plant response rating (scale of 0 to 100), Ryegrass, Italian” value [1, 16] was 0, the “Plant response rating, Ryegrass, Italian” value ([1]; 62 g ai/ha) was 0 and the “Plant response rating, Ryegrass, Italian” value ([1]; 125 g ai/ha) was 0. For the same molecule, the “Plant response rating, Ryegrass, Italian” value ([1]; 250 g ai/ha) was 30, the “Plant response rating (scale of 0 to 100), Barnyardgrass” value [2, 16] was 75 and the “Plant response rating, Barnyardgrass” value ([2]; 62 g ai/ha) was 90. For the same molecule, the “Plant response rating, Barnyardgrass” value ([2]; 125 g ai/ha) was 90, the “Plant response rating, Barnyardgrass” value ([2]; 250 g ai/ha) was 90 and the “Plant response rating (scale of 0 to 100), Galium” value [3, 16] was 100. The “Plant response rating, Galium” value ([3]; 62 g ai/ha) was 90, the “Plant response rating, Galium” value ([3]; 125 g ai/ha) was 100 and the “Plant response rating, Galium” value ([3]; 250 g ai/ha) was 90. The “Plant response rating (scale of 0 to 100), Blackgrass” value [4, 16] was 0, the “Plant response rating, Blackgrass” value ([4]; 62 g ai/ha) was 0 and the “Plant response rating, Blackgrass” value ([4]; 125 g ai/ha) was 50. For the same molecule, the “Plant response rating, Blackgrass” value ([4]; 250 g ai/ha) was 70, the “Plant response rating (scale of 0 to 100), Nutsedge, Yellow” value [5, 16] was 0 and the “Plant response rating, Nutsedge, Yellow” value ([5]; 62 g ai/ha) was 0. The “Plant response rating, Nutsedge, Yellow” value ([5]; 125 g ai/ha) was 0, the “Plant response rating, Nutsedge, Yellow” value ([5]; 250 g ai/ha) was 0 and the “Plant response rating (scale of 0 to 100), Velvetleaf” value [6, 16] was 25. For the same molecule, the “Plant response rating, Velvetleaf” value ([6]; 62 g ai/ha) was 40, the “Plant response rating, Velvetleaf” value ([6]; 125 g ai/ha) was 50 and the “Plant response rating, Velvetleaf” value ([6]; 250 g ai/ha) was 65. For the same molecule, the “Plant response rating (scale of 0 to 100), Ragweed” value [7, 16] was 70, the “Plant response rating, Ragweed” value ([7]; 62 g ai/ha) was 40 and the “Plant response rating, Ragweed” value ([7]; 125 g ai/ha) was 40. For the same molecule, the “Plant response rating, Ragweed” value ([7]; 250 g ai/ha) was 55, the “Plant response rating (scale of 0 to 100), Morningglory” value [8, 16] was 0 and the “Plant response rating, Morningglory” value ([8]; 62 g ai/ha) was 0. For the same molecule, the “Plant response rating, Morningglory” value ([8]; 125 g ai/ha) was 20, the “Plant response rating, Morningglory” value ([8]; 250 g ai/ha) was 25 and the “Plant response rating (scale of 0 to 100), Pigweed” value [9, 16] was 75. The “Plant response rating, Pigweed” value ([9]; 62 g ai/ha) was 85, the “Plant response rating, Pigweed” value ([9]; 125 g ai/ha) was 90 and the “Plant response rating, Pigweed” value ([9]; 250 g ai/ha) was 90. For the same molecule, the “Plant response rating (scale of 0 to 100), Soybean” value (soybean (Glycine max); [16]) was 35, the “Plant response rating, Soybean” value (soybean (Glycine max); 62 g ai/ha) was 0 and the “Plant response rating, Soybean” value (soybean (Glycine max); 125 g ai/ha) was 0. For the same molecule, the “Plant response rating, Soybean” value (soybean (Glycine max); 250 g ai/ha) was 0, the “Plant response rating (scale of 0 to 100), Corn” value (corn (Zea mays); [16]) was 40 and the “Plant response rating, Corn” value (corn (Zea mays); 62 g ai/ha) was 70. For the same molecule, the “Plant response rating, Corn” value (corn (Zea mays); 125 g ai/ha) was 80, the “Plant response rating, Corn” value (corn (Zea mays); 250 g ai/ha) was 80 and the “Plant response rating (scale of 0 to 100), Crabgrass, Large” value [10, 16] was 90. For the same molecule, the “Plant response rating, Crabgrass, Large” value ([10]; 62 g ai/ha) was 90, the “Plant response rating, Crabgrass, Large” value ([10]; 125 g ai/ha) was 95 and the “Plant response rating, Crabgrass, Large” value ([10]; 250 g ai/ha) was 95. For the same molecule, the “Plant response rating (scale of 0 to 100), Johnsongrass” value [11, 16] was 75, the “Plant response rating, Johnsongrass” value ([11]; 62 g ai/ha) was 75 and the “Plant response rating, Johnsongrass” value ([11]; 125 g ai/ha) was 80. For the same molecule, the “Plant response rating, Johnsongrass” value ([11]; 250 g ai/ha) was 85, the “Plant response rating (scale of 0 to 100), Waterhemp” value [12, 16] was 85 and the “Plant response rating, Waterhemp” value ([12]; 62 g ai/ha) was 85. For the same molecule, the “Plant response rating, Waterhemp” value ([12]; 125 g ai/ha) was 85, the “Plant response rating, Waterhemp” value ([12]; 250 g ai/ha) was 90 and the “Plant response rating (scale of 0 to 100), Foxtail, Giant” value [13, 16] was 85. The “Plant response rating, Foxtail, Giant” value ([13]; 62 g ai/ha) was 90, the “Plant response rating, Foxtail, Giant” value ([13]; 125 g ai/ha) was 85 and the “Plant response rating, Foxtail, Giant” value ([13]; 250 g ai/ha) was 90. The “Plant response rating (scale of 0 to 100), Oilseed Rape” value [14, 16] was 0, the “Plant response rating, Oilseed Rape” value ([14]; 62 g ai/ha) was 30 and the “Plant response rating, Oilseed Rape” value ([14]; 125 g ai/ha) was 80. The “Plant response rating, Oilseed Rape” value ([14]; 250 g ai/ha) was 85, the “Plant response rating (scale of 0 to 100), Wheat” value [15, 16] was 0 and the “Plant response rating, Wheat” value ([15]; 62 g ai/ha) was 0. The “Plant response rating, Wheat” value ([15]; 125 g ai/ha) was 0 and the “Plant response rating, Wheat” value ([15]; 250 g ai/ha) was 30.

From patent publication US12077503B2, “Substituted cyclic amides and their use as herbicides” (FMC CORPORATION, priority 2015, dated 2024)
